Tested on: MV-4-11 cells
Experiment: Gene expression microarray analysis (Affymetrix PrimeView) and GSEA
Assay type: cell-based, human
Design: RFU PODN (11730768_x_at) / Fold change /veh PODN (11730768_x_at) / RFU LINC00158 (11744669_a_at) / Fold change /veh LINC00158 (11744669_a_at) / RFU DUSP10 (11751237_a_at) / Fold change /veh DUSP10 (11751237_a_at) / RFU ID3 (11757404_x_at) / Fold change /veh ID3 (11757404_x_at) / RFU PLEKHG5 (11737974_s_at) / Fold change /veh PLEKHG5 (11737974_s_at) / RFU LRRC4B (11730491_at) / Fold change /veh LRRC4B (11730491_at) / RFU GIMAP4 (11747438_a_at) / Fold change /veh GIMAP4 (11747438_a_at) / RFU KRT8 (11758183_x_at) / Fold change /veh KRT8 (11758183_x_at) / RFU CNN1 (11734310_a_at) / Fold change /veh CNN1 (11734310_a_at) / RFU VPS37D (11726825_at) / Fold change /veh VPS37D (11726825_at) / RFU C10orf10 (11716522_x_at) / Fold change /veh C10orf10 (11716522_x_at) / RFU KIR2DL2 /// KIR2DL4 /// KIR2DL5A /// KIR2DL5B /// KIR2DS1 /// KIR2DS2 /// KIR2DS3 /// KIR2DS4 /// KIR3DL3 /// KIR3DL3 /// KIR3DS1 (11738374_at) / Fold change /veh KIR2DL2 /// KIR2DL4 /// KIR2DL5A /// KIR2DL5B /// KIR2DS1 /// KIR2DS2 /// KIR2DS3 /// KIR2DS4 /// KIR3DL3 /// KIR3DL3 /// KIR3DS1 (11738374_at) / RFU C1QL1 (11718748_at) / Fold change /veh C1QL1 (11718748_at) / RFU TMPRSS4 (11747572_a_at) / Fold change /veh TMPRSS4 (11747572_a_at) / RFU HAMP (11756126_x_at) / Fold change /veh HAMP (11756126_x_at) / RFU RNFT2 (11725882_a_at) / Fold change /veh RNFT2 (11725882_a_at) / RFU NR4A2 (11747474_a_at) / Fold change /veh NR4A2 (11747474_a_at) / RFU ABCC12 (11746883_a_at) / Fold change /veh ABCC12 (11746883_a_at) / RFU TMEM136 (11760407_x_at) / Fold change /veh TMEM136 (11760407_x_at) / RFU CLDN22 /// WWC2 (11732394_at) / Fold change /veh CLDN22 /// WWC2 (11732394_at) / RFU HLA-DPB1 (11760878_x_at) / Fold change /veh HLA-DPB1 (11760878_x_at) / RFU SPINT1 (11716480_a_at) / Fold change /veh SPINT1 (11716480_a_at) / RFU GAP43 (11754022_s_at) / Fold change /veh GAP43 (11754022_s_at) / RFU A4GNT (11735810_at) / Fold change /veh A4GNT (11735810_at) / RFU PRB3 (11715151_x_at) / Fold change /veh PRB3 (11715151_x_at) / RFU TUBB4B (11761932_at) / Fold change /veh TUBB4B (11761932_at) / RFU CAPN14 (11732068_a_at) / Fold change /veh CAPN14 (11732068_a_at) / RFU TMCC2 (11721928_a_at) / Fold change /veh TMCC2 (11721928_a_at) / RFU IRGQ (11745062_a_at) / Fold change /veh IRGQ (11745062_a_at) / RFU FAM174B (11720279_a_at) / Fold change /veh FAM174B (11720279_a_at) / RFU TMPRSS4 (11748680_a_at) / Fold change /veh TMPRSS4 (11748680_a_at) / RFU FAM212B (11763350_a_at) / Fold change /veh FAM212B (11763350_a_at) / RFU PLEKHG5 (11743358_a_at) / Fold change /veh PLEKHG5 (11743358_a_at) / RFU ZSCAN30 (11745921_a_at) / Fold change /veh ZSCAN30 (11745921_a_at) / RFU CMKLR1 (11741424_a_at) / Fold change /veh CMKLR1 (11741424_a_at) / RFU LOC101060620 /// MAPK8IP1 (11723275_at) / Fold change /veh LOC101060620 /// MAPK8IP1 (11723275_at) / RFU SPTSSB (11747773_x_at) / Fold change /veh SPTSSB (11747773_x_at) / RFU PRSS12 (11739890_at) / Fold change /veh PRSS12 (11739890_at) / RFU BIN1 (11741810_x_at) / Fold change /veh BIN1 (11741810_x_at) / RFU WNT11 (11732464_a_at) / Fold change /veh WNT11 (11732464_a_at) / RFU C10orf10 (11716521_a_at) / Fold change /veh C10orf10 (11716521_a_at) / RFU C5orf56 (11738089_at) / Fold change /veh C5orf56 (11738089_at) / RFU CYB561 (11721691_x_at) / Fold change /veh CYB561 (11721691_x_at) / RFU ANKRD19P (11752326_a_at) / Fold change /veh ANKRD19P (11752326_a_at) / RFU OR2T12 /// OR2T33 /// OR2T8 (11738714_s_at) / Fold change /veh OR2T12 /// OR2T33 /// OR2T8 (11738714_s_at) / RFU VCAN (11748164_a_at) / Fold change /veh VCAN (11748164_a_at) / RFU JSRP1 (11732532_at) / Fold change /veh JSRP1 (11732532_at) / RFU KRTAP10-11 (11738290_x_at) / Fold change /veh KRTAP10-11 (11738290_x_at) / RFU MYO3A (11730013_a_at) / Fold change /veh MYO3A (11730013_a_at) / RFU EBF3 (11725865_a_at) / Fold change /veh EBF3 (11725865_a_at) / RFU CAMK2N1 (11719241_x_at) / Fold change /veh CAMK2N1 (11719241_x_at) / RFU C5orf56 (11738088_a_at) / Fold change /veh C5orf56 (11738088_a_at) / RFU OLFML3 (11715873_a_at) / Fold change /veh OLFML3 (11715873_a_at) / RFU LOC100653217 /// NTM (11731650_a_at) / Fold change /veh LOC100653217 /// NTM (11731650_a_at) / RFU MAPK11 (11762145_a_at) / Fold change /veh MAPK11 (11762145_a_at) / RFU FIZ1 (11724087_x_at) / Fold change /veh FIZ1 (11724087_x_at) / RFU OASL (11726364_x_at) / Fold change /veh OASL (11726364_x_at) / RFU SOX15 (11748057_x_at) / Fold change /veh SOX15 (11748057_x_at) / RFU CD79A (11719716_a_at) / Fold change /veh CD79A (11719716_a_at) / RFU HIST1H1D (11736915_at) / Fold change /veh HIST1H1D (11736915_at) / RFU CASKIN2 (11723855_a_at) / Fold change /veh CASKIN2 (11723855_a_at) / RFU LOC730098 (11760151_x_at) / Fold change /veh LOC730098 (11760151_x_at) / RFU OR4N2 (11742367_at) / Fold change /veh OR4N2 (11742367_at) / RFU PRRT2 (11749266_a_at) / Fold change /veh PRRT2 (11749266_a_at) / RFU SNX32 (11753110_a_at) / Fold change /veh SNX32 (11753110_a_at) / RFU CDHR5 (11726645_a_at) / Fold change /veh CDHR5 (11726645_a_at) / RFU RCAN1 (11760418_a_at) / Fold change /veh RCAN1 (11760418_a_at) / RFU FAM167A (11723789_a_at) / Fold change /veh FAM167A (11723789_a_at) / RFU FAM26E (11764081_at) / Fold change /veh FAM26E (11764081_at) / RFU ISYNA1 (11749810_s_at) / Fold change /veh ISYNA1 (11749810_s_at) / RFU ACY1 (11761880_at) / Fold change /veh ACY1 (11761880_at) / RFU 11764098_at / Fold change /veh 11764098_at / RFU SAMD14 (11745864_x_at) / Fold change /veh SAMD14 (11745864_x_at) / RFU NPB (11741838_a_at) / Fold change /veh NPB (11741838_a_at) / RFU TMPRSS6 (11731388_a_at) / Fold change /veh TMPRSS6 (11731388_a_at) / RFU KRTAP10-2 (11738614_at) / Fold change /veh KRTAP10-2 (11738614_at) / RFU ARHGAP8 /// PRR5-ARHGAP8 (11727945_x_at) / Fold change /veh ARHGAP8 /// PRR5-ARHGAP8 (11727945_x_at) / RFU KRTAP5-7 /// NADSYN1 (11734609_at) / Fold change /veh KRTAP5-7 /// NADSYN1 (11734609_at) / RFU RASL12 (11751679_a_at) / Fold change /veh RASL12 (11751679_a_at) / RFU CDKN2B (11736163_a_at) / Fold change /veh CDKN2B (11736163_a_at) / RFU PRF1 (11729649_at) / Fold change /veh PRF1 (11729649_at) / RFU, ZNF638 /// ZNF638-IT1 / Fold change vs veh, ZNF638 /// ZNF638-IT1 / RFU, PANK3 / Fold change vs veh, PANK3 / RFU, SH3YL1 / Fold change vs veh, SH3YL1 / RFU, ZEB2 / Fold change vs veh, ZEB2 / RFU, NRIP1 / Fold change vs veh, NRIP1 / RFU, PTTG1IP / Fold change vs veh, PTTG1IP / RFU, CAPN2 / Fold change vs veh, CAPN2 / RFU, MED14 / Fold change vs veh, MED14 / RFU, SNORA58 / Fold change vs veh, SNORA58 / RFU, C1orf63 / Fold change vs veh, C1orf63 / RFU, LRRFIP1 / Fold change vs veh, LRRFIP1 / RFU, NDUFAF7 / Fold change vs veh, NDUFAF7 / RFU, SLC12A2 / Fold change vs veh, SLC12A2 / RFU, IBTK / Fold change vs veh, IBTK / RFU, ESF1 / Fold change vs veh, ESF1 / Fold change vs veh, TMEM50B / RFU, TAOK1 / Fold change vs veh, TAOK1 / RFU, ACBD3 / Fold change vs veh, ACBD3 / RFU, TMA16 / Fold change vs veh, TMA16 / RFU, RWDD3 / Fold change vs veh, RWDD3 / RFU, BCAT1 / Fold change vs veh, BCAT1 / RFU, EDEM3 / Fold change vs veh, EDEM3 / RFU, TMEM33 / Fold change vs veh, TMEM33 / RFU, WDR75 / Fold change vs veh, WDR75 / RFU, AHCTF1 / Fold change vs veh, AHCTF1 / RFU, TFRC / Fold change vs veh, TFRC / RFU, ZDHHC17 / Fold change vs veh, ZDHHC17 / RFU, NOM1 / Fold change vs veh, NOM1 / RFU, ARL8B / Fold change vs veh, ARL8B / RFU, ZBTB11 / Fold change vs veh, ZBTB11 / RFU, TAMM41 / Fold change vs veh, TAMM41 / RFU, KIAA1704 /// LOC100996395 / Fold change vs veh, KIAA1704 /// LOC100996395 / RFU, ING1 / Fold change vs veh, ING1 / RFU, TRMT61B / Fold change vs veh, TRMT61B / RFU, FUBP3 / Fold change vs veh, FUBP3 / RFU, TP53 / Fold change vs veh, TP53 / RFU, TNKS2 / Fold change vs veh, TNKS2 / RFU, ZFP14 / Fold change vs veh, ZFP14 / RFU, ACTR2 / Fold change vs veh, ACTR2 / RFU, PPP3R1 / Fold change vs veh, PPP3R1 / RFU, PIK3R1 / Fold change vs veh, PIK3R1 / RFU, HNRNPA1 / Fold change vs veh, HNRNPA1 / RFU, RNF170 / Fold change vs veh, RNF170 / RFU, ZNF28 / Fold change vs veh, ZNF28 / RFU, RNGTT / Fold change vs veh, RNGTT / RFU, OGT / Fold change vs veh, OGT / RFU, BRD1 / Fold change vs veh, BRD1 / RFU, MARS / Fold change vs veh, MARS / RFU, ZNF655 / Fold change vs veh, ZNF655 / RFU, FAHD1 / Fold change vs veh, FAHD1 / RFU, BDP1 / Fold change vs veh, BDP1 / RFU, LRRCC1 / Fold change vs veh, LRRCC1 / RFU, ARID1A / Fold change vs veh, ARID1A / RFU, ZNF146 / Fold change vs veh, ZNF146 / RFU, ZNF330 / Fold change vs veh, ZNF330 / RFU, GPN3 / Fold change vs veh, GPN3 / RFU, C9orf123 / Fold change vs veh, C9orf123 / RFU, N4BP2L2 / Fold change vs veh, N4BP2L2 / RFU, ARFIP1 / Fold change vs veh, ARFIP1 / RFU, FAM179B / Fold change vs veh, FAM179B / RFU, BCL10 / Fold change vs veh, BCL10 / RFU, UHRF1BP1L / Fold change vs veh, UHRF1BP1L / RFU, BET1 / Fold change vs veh, BET1 / RFU, CNOT2 / Fold change vs veh, CNOT2 / RFU, ZNF268 / Fold change vs veh, ZNF268 / Fold change vs veh, ZNF507 / RFU, DGCR2 / Fold change vs veh, DGCR2 / RFU, WDSUB1 / Fold change vs veh, WDSUB1 / Fold change vs veh, HSP90B1 /// MIR3652 / RFU, ADSS / Fold change vs veh, ADSS / RFU, GK / Fold change vs veh, GK / RFU, ZNF148 / Fold change vs veh, ZNF148 / RFU, TAF9 / Fold change vs veh, TAF9 / RFU, SLC1A5 / Fold change vs veh, SLC1A5 / RFU, SLMO2 / Fold change vs veh, SLMO2 / RFU, ABCC4 / Fold change vs veh, ABCC4 / RFU, LOC101060439 /// RAP1B / Fold change vs veh, LOC101060439 /// RAP1B / RFU, RFX7 / Fold change vs veh, RFX7 / RFU, GTPBP10 / Fold change vs veh, GTPBP10 / RFU, CNEP1R1 / Fold change vs veh, CNEP1R1 / RFU, BIVM-ERCC5 /// ERCC5 / Fold change vs veh, BIVM-ERCC5 /// ERCC5 / RFU, ILF3 / Fold change vs veh, ILF3 / RFU 11762660_at / Fold change /veh 11762660_at / RFU VCAN (11757783_s_at) / Fold change /veh VCAN (11757783_s_at) / RFU DDX43 (11728927_at) / Fold change /veh DDX43 (11728927_at) / RFU KRT8 (11758188_x_at) / Fold change /veh KRT8 (11758188_x_at) / RFU NKD1 (11759106_at) / Fold change /veh NKD1 (11759106_at) / RFU SRD5A1 (11742802_a_at) / Fold change /veh SRD5A1 (11742802_a_at) / RFU TPSAB1 /// TPSB2 (11721975_s_at) / Fold change /veh TPSAB1 /// TPSB2 (11721975_s_at) / RFU GSTM3 (11746129_a_at) / Fold change /veh GSTM3 (11746129_a_at) / RFU IL23R (11737362_x_at) / Fold change /veh IL23R (11737362_x_at) / RFU TMEM51 (11727254_a_at) / Fold change /veh TMEM51 (11727254_a_at) / RFU PIWIL2 (11732686_x_at) / Fold change /veh PIWIL2 (11732686_x_at) / RFU ORM1 (11744905_x_at) / Fold change /veh ORM1 (11744905_x_at) / RFU CCDC152 (11743942_at) / Fold change /veh CCDC152 (11743942_at) / RFU ECM1 (11717891_a_at) / Fold change /veh ECM1 (11717891_a_at) / RFU IL23R (11748794_a_at) / Fold change /veh IL23R (11748794_a_at) / RFU TNFAIP8L3 (11732012_x_at) / Fold change /veh TNFAIP8L3 (11732012_x_at) / RFU MBOAT4 (11741988_at) / Fold change /veh MBOAT4 (11741988_at) / RFU 11764193_at / Fold change /veh 11764193_at / RFU TMEM53 (11763286_at) / Fold change /veh TMEM53 (11763286_at) / RFU MAGEB2 (11727129_at) / Fold change /veh MAGEB2 (11727129_at) / RFU TMEM200A (11744735_a_at) / Fold change /veh TMEM200A (11744735_a_at) / RFU CCDC152 (11751479_a_at) / Fold change /veh CCDC152 (11751479_a_at) / RFU FAM211A (11726209_a_at) / Fold change /veh FAM211A (11726209_a_at) / RFU RGS16 (11746705_a_at) / Fold change /veh RGS16 (11746705_a_at) / RFU VCAN (11755009_s_at) / Fold change /veh VCAN (11755009_s_at) / RFU RHOB (11743442_s_at) / Fold change /veh RHOB (11743442_s_at) / RFU RGS16 (11720943_a_at) / Fold change /veh RGS16 (11720943_a_at) / RFU RGS16 (11720944_at) / Fold change /veh RGS16 (11720944_at) / RFU, VPS4B / Fold change vs veh, VPS4B / RFU, CREB1 / Fold change vs veh, CREB1 / RFU, DNAJC13 / Fold change vs veh, DNAJC13 / RFU, GNAQ / Fold change vs veh, GNAQ / RFU, CDK5R1 / Fold change vs veh, CDK5R1 / RFU, ZRANB3 / Fold change vs veh, ZRANB3 / RFU, CUL4A / Fold change vs veh, CUL4A / RFU, CCNY / Fold change vs veh, CCNY / RFU, UFL1 / Fold change vs veh, UFL1 / RFU, COG3 / Fold change vs veh, COG3 / RFU, DIAPH2 / Fold change vs veh, DIAPH2 / RFU, SKA2 / Fold change vs veh, SKA2 / RFU, AFF3 / Fold change vs veh, AFF3 / RFU, LMF1 / Fold change vs veh, LMF1 / RFU, IPO11 / Fold change vs veh, IPO11 / RFU, DFFB / Fold change vs veh, DFFB / RFU, FOXP1 / Fold change vs veh, FOXP1 / RFU, CARD8 / Fold change vs veh, CARD8 / RFU, STRN3 / Fold change vs veh, STRN3 / RFU, ADK / Fold change vs veh, ADK / RFU, RASSF2 / Fold change vs veh, RASSF2 / RFU, WIPF1 / Fold change vs veh, WIPF1 / RFU, LARP1B / Fold change vs veh, LARP1B / RFU, RASA1 / Fold change vs veh, RASA1 / RFU, RB1 / Fold change vs veh, RB1 / RFU, PPFIA1 / Fold change vs veh, PPFIA1 / RFU, MAT2A / Fold change vs veh, MAT2A / RFU, CCT5 / Fold change vs veh, CCT5 / RFU, WDR92 / Fold change vs veh, WDR92 / RFU, CUX1 / Fold change vs veh, CUX1 / RFU, TTC7A / Fold change vs veh, TTC7A / RFU, TMEM135 / Fold change vs veh, TMEM135 / RFU, DEPTOR / Fold change vs veh, DEPTOR / RFU, CPM / Fold change vs veh, CPM / RFU, DNAJB6 / Fold change vs veh, DNAJB6 / RFU, CACNA2D3 / Fold change vs veh, CACNA2D3 / RFU, DTX4 / Fold change vs veh, DTX4 / RFU, TFCP2 / Fold change vs veh, TFCP2 / RFU, GMCL1 /// GMCL1P1 / Fold change vs veh, GMCL1 /// GMCL1P1 / RFU, AEBP2 / Fold change vs veh, AEBP2 / RFU, SNHG1 /// SNORD22 /// SNORD25 /// SNORD26 /// SNORD27 /// SNORD28 /// SNORD29 /// SNORD31 / Fold change vs veh, SNHG1 /// SNORD22 /// SNORD25 /// SNORD26 /// SNORD27 /// SNORD28 /// SNORD29 /// SNORD31 / Fold change (Aza/veh), C12orf56 (ProbeSet 11735607_a_at) / Fold change (ACY-1035/veh), C12orf56 (ProbeSet 11735607_a_at) / Fold change (Aza/veh), FGFR1OP (ProbeSet 11751329_s_at) / Fold change (ACY-1035/veh), FGFR1OP (ProbeSet 11751329_s_at) / Fold change (Aza/veh), VPS36 (ProbeSet 11739960_a_at) / Fold change (ACY-1035/veh), VPS36 (ProbeSet 11739960_a_at) / RFU SYPL1 (11715823_x_at) / Fold change /veh SYPL1 (11715823_x_at) / RFU IGFBP7 (11715501_s_at) / Fold change /veh IGFBP7 (11715501_s_at) / RFU REEP3 (11722064_at) / Fold change /veh REEP3 (11722064_at) / RFU IGLL1 (11728026_x_at) / Fold change /veh IGLL1 (11728026_x_at): dose or concentration left out as unconfirmed
Conditions: MV-4-11 cells, 48 hours

Structure (SMILES): Nc1ccc(-c2cccs2)cc1NC(=O)c1ccc2c(c1)cc(C1CC1)n2CCN1CCOCC1 [ACY-1035]
- Fold change /veh SPTSSB (11747773_x_at): 0.98
